Measured values taken from patent US6407081B1, “Method for inhibiting cytokine production by cells” (Previsan AG, priority 1997, dated 2002).

Key:
tumour necrosis factor = settings: dose of 1 mmol; endotoxin-induced activation of alveolar macrophages; cited from earlier work
[1] = medium not stated; cited from earlier work
IL-5 = IL-5 production by PHA/PMA-stimulated mononuclear cells, ELISA (Example 7); type: cell-based; settings: human mononuclear cells, PHA + PMA, 48 h
Method: (§1) 200 ml of blood are taken and heparinised from healthy male and female volunteers. Mononuclear cells are isolated by Ficoll-Hypaque centrifugation and resuspended in a medium consisting of RPMI 1640 complemented by 5% autologous serum, […] of glutamine, […] of penicillin, 10 μg/ml of streptomycin, 10 μg/ml of phytohaemagglutinin (PHA), 10 μg/ml of phorbol myristate acetate (PMA) and test compounds as stated per individual experiment at a cellular density of 2,000,000 per ml. The cells are distributed in 96 well microtitre plates in 250 μl portions per well and incubated for 48 hours at 37° C. The supernatants are then harvested and the IL-2 and IL-5 concentrations quantified by a standard ELISA assay using a biotin/streptavidin system. By way of variant, PHA was replaced with 0.1 μg/ml of monoclonal antibodies directed against human CD3 in order to achieve more specific activation of the T cells.

IL-2 = IL-2 production by PHA/PMA-stimulated mononuclear cells, ELISA (Example 7); type: cell-based; settings: human mononuclear cells, PHA + PMA, 48 h
Method: as §1

CN(C)C(=O)N=NC(=O)N(C)C [A, 1,1′-azobisdimethylformamide]
production of tumour necrosis factor (tumour necrosis factor): insignificant increase
half-life [1]: only a few minutes
IL-5 inhibition (%) (IL-5; 10 μM): 12%
IL-5 inhibition (%) (IL-5; 32 μM): 29%
IL-2 inhibition (%) (IL-2; 10 μM): 3%
IL-2 inhibition (%) (IL-2; 32 μM): 28%

O=C(N=NC(=O)N1CCCCC1)N1CCCCC1 [B, 1,1′-(azodicarbonyl)dipiperidine]
inhibition at 10 µM (IL-5; 10 μM): 17%
inhibition at 32 µM (IL-5; 32 μM): 39%
inhibition at 10 µM (IL-2; 10 μM): 0.2%
inhibition at 32 µM (IL-2; 32 μM): 11%

O=C(N=NC(=O)N1CCOCC1)N1CCOCC1 [C, 1,1′-(azodicarbonyl)dimorpholine]
IL-5 inhibition (%) (IL-5; 10 μM): 37%
IL-5 inhibition (%) (IL-5; 32 μM): 51%
IL-2 inhibition (%) (IL-2; 10 μM): 6%
IL-2 inhibition (%) (IL-2; 32 μM): 9%
